Test results reported in US12497610B2, “Functional genomics using CRISPR-CAS systems for saturating mutagenesis of non-coding elements, compositions, methods, libraries and applications thereof” (THE BROAD INSTITUTE, INC., priority 2015, dated 2025).

Tested on: human BCL11A erythroid enhancer
Assay: Tiled pooled CRISPR-Cas9 screen for in situ functional mapping of the human BCL11A erythroid enhancer (HbF-high/HbF-low sort, sgRNA deep sequencing)
Assay type: cell-based
Settings: for Enrichment Score: HbF enrichment, human library NGG and NGG RC sgRNAs filtered for enrichment score >0.259; for Dropout Score: human library sgRNAs that produced HbF enrichment over 0.259
Description: Every 20-mer sequence upstream of an NGG or NAG PAM sequence on the sense or anti-sense strand was identified for both the human and mouse orthologous +55, +58, and +62 DNase hypersensitive site (DHS) as well as BCL11A/BCL11a exon 2. Relative to the human hg 19 reference genome, a reference was used with the following substitutions to approximate a common low-HbF associated haplotype: rs1427407-G, rs1896293-T, rs6706648-T, rs6738440-G, rs7606173-C. Each of the sgRNA oligos were synthesized as previously described (37,41,64) and cloned using a Gibson Assembly master mix (New England Biolabs) into lentiGuide-Puro (Addgene plasmid ID 52963) BsmBI digested, PCR purified, and dephosphorylated. Gibson Assembly products were transformed to electrocompetent E. cloni cells (Lucigen). Sufficient colonies were isolated to ensure 90X library coverage for both human and mouse libraries. Plasmid libraries were deep sequenced (described below) to confirm representation.
Tiled Pooled CRISPR-Cas9 Screen for In Situ Functional Mapping the Human BCL11A Erythroid Enhancer.
HUDEP clone 2 (HUDEP-2) was utilized as previously described by from Nakamura and colleagues (49). HUDEP-2 cells were expanded in StemSpan SFEM (Stem Cell Technologies) supplemented with 10^−6 M dexamethasone (Sigma), 100 ng/mL human stem cell factor (SCF) (R&D), 3 IU/mL erythropoietin (Amgen), 1% L-glutamine (Life Technologies), and 2% penicillin/streptomycin (Life Technologies). 1 μg/mL doxycycline (Sigma) was included in the culture to induce expression of the human papilloma virus type 16 E6/E7 genes (49). HUDEP-2 cells were differentiated in Iscove's Modified Dulbecco's Medium (IMDM) supplemented with 330 μg/mL halo-transferrin (Sigma), 10 μg/mL recombinant human insulin (Sigma), 2 IU/mL heparin (Sigma), 5% human solvent detergent pooled plasma AB (Rhode Island Blood Center), 3 IU/mL erythropoietin (Amgen), 100 ng/mL human stem cell factor (SCF) (R&D), 1 μg/mL doxycycline (Sigma), 1% L-glutamine (Life Technologies), and 2% penicillin/streptomycin (Life Technologies).
HUDEP-2 cells with stable Cas9 expression were transduced at low multiplicity with the human sgRNA library lentivirus pool while in expansion medium. […] Cell numbers were maintained throughout the experiment at levels adequate to exceed 1000× representation of the library. 10 μg/mL blasticidin (Sigma) and 1 μg/mL puromycin (Sigma) were added 24 hours after transduction to select for lentiviral library integrants in cells with Cas9. Cells were cultured in expansion media for one week followed by differentiation media for an additional week.
Intracellular staining was performed by fixing cells with 0.05% glutaraldehyde (grade II) (Sigma) for 10 minutes at room temperature. Cells were centrifuged for 5 minutes at 350 g and then resuspended in 0.1% Triton-X100 (Life Technologies) for 5 minutes at room temperature for permeabilization. Triton X-100 was diluted with phosphate buffered saline (PBS) and then centrifuged at 350 g for 15 minutes. Cells were stained with anti-human antibodies for HbF (clone HbF-1 with FITC or APC conjugation; Life Technologies) and B-hemoglobin antibody (clone 37-8 with PerCP-Cy5 or PE conjugation; Santa Cruz) for 20 minutes in the dark. Cells were washed to remove unbound antibody prior to FACS analysis. 0.2 μg HbF and 2 μg of HbA CB-hemoglobin) antibodies were used per 5 million cells. Control cells exposed to a nontargeting sgRNA sample and BCL11A exon 2 were used as negative and positive controls respectively to establish flow cytometry conditions. Populations of cells with the top and bottom 10% of expression of HbF were sorted by FACS.
After sorting the HbF-high and HbF-low pools, library preparation and deep sequencing was performed as previously described (37). Briefly, genomic DNA was extracted using the Qiagen Blood and Tissue kit. […]

| Substance | Enrichment Score | Dropout Score |
| --- | --- | --- |
| BCL_00086_H_D55 (guide CTCCAAGCATTGCATCATCCNGG; listed as DNA, chemistry not given here) | 0.6343 | −0.2703 |
| BCL_00251_H_exon2 (guide GGCCCGTTGGGAGCTCCAGANGG; listed as DNA, chemistry not given here) | 1.911 | −1.236 |
| BCL_01684_H_D58 (guide ACAACCTCCTTGTTTACAGANGGRC; listed as DNA, chemistry not given here) | 0.4945 | 0.3674 |
| BCL_02007_H_exon2 (guide GGCACTGCCCACAGGTGAGGNGGRC; listed as DNA, chemistry not given here) | 3.351 | −1.662 |
| BCL_01989_H_exon2 (guide CTGCTATGTGTTCCTGTTTGNGGRC; listed as DNA, chemistry not given here) | 0.6201 | 0.0332 |
| BCL_00087_H_D55 (guide CATTGCATCATCCTGGTACCNGG; listed as DNA, chemistry not given here) | 0.438 | −0.2253 |
| BCL_00248_H_exon2 (guide ACAGATGATGAACCAGACCANGG; listed as DNA, chemistry not given here) | 1.609 | −2.532 |
| BCL_00082_H_D55 (guide TCACAGGGTGTGCCCTGAGANGG; listed as DNA, chemistry not given here) | 0.4174 | −1.087 |
| BCL_00089_H_D55 (guide TCCTGGTACCAGGAAGGCAANGG; listed as DNA, chemistry not given here) | 0.3559 | −0.7862 |
| BCL_00108_H_D55 (guide TCTGAGGAGCTAGAGACTTGNGG; listed as DNA, chemistry not given here) | 0.3065 | −0.6499 |
| BCL_01624_H_D58 (guide GGTTTGGCCTCTGATTAGGGNGGRC; listed as DNA, chemistry not given here) | 1.472 | −0.7713 |
| BCL_01495_H_D55 (guide AGGGAGAAATGAGACAAAAGNGGRC; listed as DNA, chemistry not given here) | 0.2643 | −0.4932 |
| BCL_00265_H_exon2 (guide GCATCCAATCCCGTGGAGGTNGG; listed as DNA, chemistry not given here) | 1.291 | −0.8895 |
| BCL_00084_H_D55 (guide AGGGTGTGCCCTGAGAAGGTNGG; listed as DNA, chemistry not given here) | 0.311 | −0.3691 |
| BCL_01427_H_D55 (guide GGCTAAATAATGAATGTCCCNGGRC; listed as DNA, chemistry not given here) | 0.367 | −0.2716 |
| BCL_01639_H_D58 (guide ATCGGTGGCCGTTTGCCCAGNGGRC; listed as DNA, chemistry not given here) | 0.8219 | −0.8981 |
| BCL_01450_H_D55 (guide TGCTTGGTCGGCACTGATAGNGGRC; listed as DNA, chemistry not given here) | 1.578 | −0.3195 |

| Substance | Enrichment Score | Dropout Score |
| --- | --- | --- |
| BCL_00266_H_exon2 (guide TCCCGTGGAGGTTGGCATCCNGG; listed as DNA, chemistry not given here) | 0.5889 | −0.1802 |
| BCL_02006_H_exon2 (guide TCTGGCACTGCCCACAGGTGNGGRC; listed as DNA, chemistry not given here) | 1.489 | −2.029 |
| BCL_00241_H_D62 (guide CTCAGCTACTCGGGAGGCTGNGG; listed as DNA, chemistry not given here) | 0.6113 | −9.052 |
| BCL_01428_H_D55 (guide GAATGTCCCAGGCCAATTCTNGGRC; listed as DNA, chemistry not given here) | 0.4299 | −0.5435 |
| BCL_00186_H_D58 (guide CACGCCCCCACCCTAATCAGNGG; listed as DNA, chemistry not given here) | 0.8971 | −0.7965 |
| BCL_00210_H_D62 (guide TAAACAGCCACCCCACACCCNGG; listed as DNA, chemistry not given here) | 0.7026 | −0.8705 |
| BCL_00183_H_D58 (guide AAGAGGCCCCCCTGGGCAAANGG; listed as DNA, chemistry not given here) | 0.7853 | −0.5913 |
| BCL_01828_H_D62 (guide CTCTTCTCCAGGGTGTGGGGNGGRC; listed as DNA, chemistry not given here) | 0.3485 | −0.391 |
| BCL_00091_H_D55 (guide CCCACTTCCCTTCCTAGAATNGG; listed as DNA, chemistry not given here) | 1.168 | −0.5042 |
| BCL_01627_H_D58 (guide TTGGCCTCTGATTAGGGTGGNGGRC; listed as DNA, chemistry not given here) | 0.3054 | −0.2564 |
| BCL_00229_H_D62 (guide CCCAGCACTTTGGGAGGCCGNGG; listed as DNA, chemistry not given here) | 0.6113 | −8.717 |
| BCL_02015_H_exon2 (guide AAGAATGGCTTCAAGAGGCT; chemistry not given here) | 1.064 | −1.349 |
| BCL_00262_H_exon2 (guide CCTCTGCTTAGAAAAAGCTGNGG; listed as DNA, chemistry not given here) | 1.001 | −1.352 |
| BCL_01831_H_D62 (guide GGGTGGCTGTTTAAAGAGGGNGGRC; listed as DNA, chemistry not given here) | 0.4104 | −0.1486 |
| BCL_02014_H_exon2 (guide TCTGTAAGAATGGCTTCAAGNGGRC; listed as DNA, chemistry not given here) | 0.9901 | −0.7711 |
| BCL_00085_H_D55 (guide GGGTGTGCCCTGAGAAGGTGNGG; listed as DNA, chemistry not given here) | 0.5011 | −0.6263 |
